Laboratory results reported in publication PMC2832019, “In Vitro Metabolic and Mitogenic Signaling of Insulin Glargine and Its Metabolites” (PLoS ONE, 2010).

Legend:
primary rat adipocytes = experiment: Metabolic activity: insulin-stimulated lipid synthesis in primary rat adipocytes; type: cell-based, rat (Sprague-Dawley); conditions: for lipid synthesis EC50 higher relative to human insulin: fold higher EC50 relative to insulin; for EC50: incorporation of [3-^3H]glucose into toluene-extractable lipids, 90 min at 37°C, pH 7.4, means ± SEM, five different adipocyte preparations, read-out: Metabolic potency EC50; for metabolic activity, EC50 lower than M1: relative to M1
Description: The metabolic activity of the different insulins was compared using insulin-stimulated lipid synthesis in primary rat adipocytes. Primary rat adipocytes were prepared according to published procedures, [33]. Briefly, rats (Sprague-Dawley, male, 140–160 g, fed ad libitum) were provided from Charles-River (Sulzfeld, Germany) and killed by cervical dislocation in accordance with the German animal protection law. The animals were used for the preparation of primary adipocytes, exclusively, and were not subjected to any pretreatment, such as drug administration or starvation. Epididymal fat pads were rapidly removed, stripped of blood vessels and placed in PBS. Subsequently, the pads were washed with KRBB bubbled with 5% O2/95% CO2. Each pad was then cut into two or three pieces. Two pieces of each were incubated with 1.5 mL of digestion buffer (10 mg collagenase [Worthington Inc., CLS, type I, 190 units/mg] in 10 ml of KRBB containing 9 mg glucose) for 15–30 min at 37°C in a shaking water bath (240 cycles/min). Released adipocytes were separated from residual undigested tissue by passage through a nylon web (mesh size 150 µm) and washed by flotation in a plastic tube two or three times with KRBB and adjusted to the appropriate titer of 3.5×10^5 cells/mL. For distribution of the adipocytes, 200 µL of the suspension was removed under continuous gentle stirring with a plastic agitator.
Lipid synthesis was measured as the incorporation of [3-^3H]glucose into toluene-extractable lipids, at a final cell titer of […] in KRBB (1.2 mM KH2PO4, 1.2 mM MgSO4, 4.8 mM KCl, 25 mM NaHCO3, 120 mM NaCl, 2.4 mM CaCl2, containing 1% BSA [defatted, fraction V, Sigma, Deisenhofen, Germany] and 37 µM glucose and adjusted to pH 7.4) according to published procedures (Müller et al., 2008) with the following modifications: 680 µL of KRBB were filled into 10-mL scintillation vials and supplemented with 100 µL of D-[3-^3H]glucose (2 µCi/mL KRBB, 1 mM, Amersham-Buchler, Braunschweig, Germany) and 20 µL of insulin solution in KRBB. Lipid synthesis was started by the addition of 200 µL of adipocyte suspension in KRBB. After incubation for 90 min at 37°C under an atmosphere of 5% O2/95% CO2 and gentle shaking, 10 mL of toluene-based scintillation cocktail (Quickszint 501, Zinsser, Germany) was added. The samples were vigorously mixed and after phase separation (2 to 4 h) measured for radioactivity by liquid scintillation counting. Determination of the radioactivity contained in the toluene phase and corrected for non-specific spill-over of the radioactivity of unincorporated radiolabelled glucose contained in the water phase predominantly reflects the de novo lipid synthesis.
(§1) For each experiment, IC50 or EC50 values were obtained using the 4-parameter logistic model according to Ratkowsky and Reedy (1986). The adjustment was obtained by non-linear regression using the Levenberg-Marquardt algorithm in SAS v9.1.3 software via Biost@t-Speed V2.0-LTS internal application. If necessary, lower and upper asymptotes were set to 0 and 100, respectively.
Figure 3 Metabolic activity of insulin glargine and its metabolites in rat adipocytes. To compare the metabolic activity of glargine and its metabolites insulin-stimulated lipid synthesis in isolated primary rat adipocytes was analyzed by incorporation of [3-^3H]glucose into toluene-extractable lipids and subsequent measurement of radioactivity by liquid scintillation counting. The adipocytes were treated with increasing concentrations of insulin, analogs, metabolites or IGF-1 for 90 min at 37°C in the presence of [3-^3H]glucose. Each point represents the mean ± SEM of five different adipocyte preparations with activity measurements done in duplicate.

Saos-2 cells = experiment: Mitogenic potency: thymidine incorporation in Saos-2 cells; type: cell-based, human; conditions: for EC50: [2-^14C]-thymidine incorporation, 19 h stimulation plus 6 h thymidine, serum-free, 37°C, octuplicate samples, means ± SEM, at least three times; for mitogenicity in words: relative to glargine and human insulin
Description: The human osteosarcoma cell line Saos-2 was obtained in frozen aliquots from the European Collection of Cell Cultures (ECACC, Salesbury, UK). Cells were grown in McCoy's 5a medium (Gibco, Grand Island, NY, USA) supplemented with 10% fetal calf serum (PAN Biotech GmbH, Aidenbach, Germany) and 2 mM (final) L-glutamine (Sigma Aldrich, Irvine, UK). Subconfluent cultures (9-15×10^6 cells per 225 cm^2 flask) were used to determine the mitogenic activity of the test compounds.
For measuring thymidine incorporation 40,000 cells were seeded per well of a 96-well Cytostar-T scintillation microplate (GE Healthcare, Amersham, UK) and the plates were incubated overnight at 37°C in a humidified atmosphere containing 5% CO2. The serum-containing medium was removed and replaced by 200 µL serum-free McCoy's 5a medium supplemented with 0.5% (w/v) BSA (Gibco, Grand Island, NY, USA), 2 mM L-glutamine and antibiotics (penicillin 100 units, streptomycin 100 units, amphotericin B 0.25 µg/mL final, Gibco, Grand Island, NY, USA). The plates were incubated for 4 hours at 37°C in a humidified atmosphere containing 5% CO2. 150 µL of the medium were removed and substituted by 150 µL of serum-free medium containing the different insulins or IGF-1 (Cell Sciences, Canton, MA, USA) at the indicated concentrations and the plates were incubated at 37°C in a humidified atmosphere containing 5% CO2. After 19 hours 10 µL of [2-^14C]-thymidine solution ([…], 3.7 MBq/mL) diluted in serum-free McCoy's 5a medium were added per well to yield a final concentration of 500 nCi/mL and the plates were incubated for 6 hours at 37°C in a humidified atmosphere containing 5% CO2. ^14C-thymidine incorporation was measured in a Wallac 1450 Micro Beta Trilux Scintillation counter. Dose-response curves were obtained by testing ten different concentrations of the ligands with every concentration tested by octuplicate samples.
as §1
(§2) Figure 4 Activity of insulin analogs on the human IGF1R and mitogenic potential in Saos-2 cells. Analysis of binding to the human IGF1R using [^125I]IGF-1 as radioactive ligand (A) and analysis of the insulin-stimulated autophosphorylation of the human IGF1R overexpressed in MEF cells (B) were done as described in figure 2 and Materials and Methods. Data are given as means ± SEM. […] Confluent cells were starved for 4 h and then incubated for 19 h with increasing concentrations of IGF-1, insulin or analog in serum free medium. [^14C]thymidine was added for further 6 h and the radioactivity measured in a Wallac Micro Scintillation counter. Data are given as means ± SEM from octuplicate sample.

human IGF1R = experiment: Competitive binding, IGF1R; conditions: for IC50: [^125I]IGF-1 as radioactive ligand, means ± SEM, at least three times, read-out: IGF1R affinity IC50
Description: Binding experiments were conducted in 96-well microplates. Per well 2 µg of membranes were incubated with 0.25 mg wheat germ agglutinin polyvinyltoluene polyethylenimine SPA beads, 100 pmol/L A14[^125I]-insulin and various concentrations of unlabeled insulins in a binding buffer containing 0.05 mol/L Tris-HCl pH 7.8, 0.15 mol/L NaCl, 0.1% BSA, Complete Protease Inhibitor for 12 hours at room temperature (23°C). The radioactivity was measured at equilibrium in a microplate scintillation counter (Wallac Microbeta, Freiburg, Germany).
as §1, §2

| EC50 (primary rat adipocytes) [nM] | EC50 (Saos-2 cells) [nM] | IC50 (human IGF1R) [nM] | metabolic activity, EC50 lower than M1 (primary rat adipocytes) [fold] | Substance | lipid synthesis EC50 higher relative to human insulin (primary rat adipocytes) [fold] | mitogenicity in words (Saos-2 cells) | IGF1R affinity in words (human IGF1R) |
| --- | --- | --- | --- | --- | --- | --- | --- |
| 0.098 ± 0.012 | 3.75 ± 0.31 | 80 ± 10.2 | 0.6 | [Gly^A21,Arg^B31]insulin [Glargine IM] | – | reduced relative to insulin glargine | – |
| 0.045 ± 0.003 | 12.2 ± 0.27 | – | – | Human insulin: human insulin produced by recombinant DNA techniques or enzymatic semisynthesis | – | – | – |
| 19 ± 0.93 | 0.22 ± 0.05 | 0.89 ± 0.19 | – | IGF-1: IGF-1 obtained from R&D Systems and Cell Sciences | 422 | – | – |
| 0.087 ± 0.007 | 17.9 ± 6.5 | 427 ± 20.6 | 0.6 | [Gly^A21,des-Thr^B30]insulin [Glargine M2] | – | significantly less mitogenic than glargine and comparable to normal insulin | significantly reduced |
| 0.031 ± 0.005 | 1.52 ± 0.15 | 104 ± 12.8 | – | [Asp^B10]insulin | – | – | – |

| Substance | EC50 (primary rat adipocytes) [nM] | EC50 (Saos-2 cells) [nM] | IC50 (human IGF1R) [nM] | metabolic activity, EC50 lower than M1 (primary rat adipocytes) [fold] | lipid synthesis EC50 higher relative to human insulin (primary rat adipocytes) [fold] | mitogenicity in words (Saos-2 cells) | IGF1R affinity in words (human IGF1R) |
| --- | --- | --- | --- | --- | --- | --- | --- |
| [Gly^A21,Arg^B31,Arg^B32]insulin [Glargine] | 0.066 ± 0.005 | 1.61 ± 0.26 | 63.2 ± 19.9 | – | 1.4 | – | – |
| [Gly^A21]insulin [Glargine M1] | 0.139 ± 0.009 | 16.2 ± 2.35 | 649 ± 31.9 | – | 3.0 | significantly less mitogenic than glargine and comparable to normal insulin | significantly reduced |
